One block for each compound: values may come before it.
Key:
[1] = test system: MCF7; assay: Cytotoxicity against human MCF7 cells assessed as survival rate at 10 uM measured after 72 hrs by MTT assay relative to control; assay type: functional; settings: read-out: Survival
[2] = test system: HCT-116; assay: Cytotoxicity against human HCT-116 cells assessed as survival rate at 10 uM measured after 72 hrs by MTT assay relative to control; assay type: functional; settings: read-out: Survival
[3] = test system: U-87 MG; assay: Cytotoxicity against human U-87 MG cells assessed as survival rate at 10 uM measured after 72 hrs by MTT assay relative to control; assay type: functional, U-87MG ATCC; settings: read-out: Survival
[4] = test system: K562; assay: Antitumor activity against human K562 cells; assay type: functional, cell-based
[5] = test system: HeLa; assay: Cytotoxicity against human HeLa cells assessed as inhibition of cell growth at 10 uM measured after 72 hrs by MTT assay relative to control; assay type: functional
[6] = test system: HCT-116; assay: Cytotoxicity against human HCT-116 cells assessed as inhibition of cell growth at 10 uM measured after 72 hrs by MTT assay relative to control; assay type: functional
[7] = test system: MCF7; assay: Cytotoxicity against human MCF7 cells assessed as inhibition of cell growth incubated for 72 hrs by MTT assay; assay type: functional, cell-based; settings: MCF7, 72 h
[8] = test system: MGC-803; assay: Cytotoxicity against human MGC-803 cells assessed as inhibition of cell growth at 10 uM measured after 72 hrs by MTT assay relative to control; assay type: functional
[9] = test system: MCF7; assay: Cytotoxicity against human MCF7 cells assessed as inhibition of cell growth at 10 uM measured after 72 hrs by MTT assay relative to control; assay type: functional
[10] = test system: U-87 MG; assay: Cytotoxicity against human U-87 MG cells assessed as inhibition of cell growth incubated for 72 hrs by MTT assay; assay type: functional, cell-based, U-87MG ATCC
[11] = Cytotoxicity against HHL-5 cells assessed as inhibition of cell growth incubated for 72 hrs by MTT assay; assay type: toxicity, cell-based; settings: human
[12] = test system: MKN-45; assay: Cytotoxicity against human MKN-45 cells assessed as inhibition of cell growth incubated for 72 hrs by MTT assay; assay type: functional, cell-based; settings: MKN-45, 72 h
[13] = test system: MGC-803; assay: Cytotoxicity against human MGC-803 cells assessed as inhibition of cell growth incubated for 72 hrs by MTT assay; assay type: functional, cell-based; settings: MGC-803, 72 h
[14] = test system: MKN-45; assay: Cytotoxicity against human MKN-45 cells assessed as inhibition of cell growth at 10 uM measured after 72 hrs by MTT assay relative to control; assay type: functional
[15] = test system: U-87 MG; assay: Cytotoxicity against human U-87 MG cells assessed as inhibition of cell growth at 10 uM measured after 72 hrs by MTT assay relative to control; assay type: functional, U-87MG ATCC
[16] = test system: HCT-116; assay: Cytotoxicity against human HCT-116 cells assessed as inhibition of cell growth incubated for 72 hrs by MTT assay; assay type: functional, cell-based; settings: HCT-116, 72 h
[17] = test system: HeLa; assay: Cytotoxicity against human HeLa cells assessed as inhibition of cell growth incubated for 72 hrs by MTT assay; assay type: functional, cell-based
[18] = test system: A549; assay: Antitumor activity against human A549 cells; assay type: functional, cell-based
[19] = test system: P388; assay: Antitumor activity against mouse P388 cells; assay type: functional, cell-based
[20] = test system: HT-29; assay: Antitumor activity against human HT-29 cells; assay type: functional, cell-based

Structure (SMILES): COc1ccc(C2=CC(=O)O/C2=C\c2ccc(N(C)C)cc2)cc1
viability at 10 µM [1]: 92.2%
viability at 10 µM [2]: 87.2%
viability at 10 µM [3]: 101%

IC50 [4]: 12.8 µM
Structure (SMILES): CC(C)=CCc1cc(/C=C2\OC(=O)C=C2c2ccc(O)cc2)ccc1O

Structure (SMILES): O=C1C=C(c2ccccc2)/C(=C/c2ccc(C(=O)O)cc2)O1
viability at 10 µM [1]: 87.3%
viability at 10 µM [2]: 105%
viability at 10 µM [3]: 96.5%

Structure (SMILES): COc1ccc(C2=CC(=O)O/C2=C\c2ccc(Br)cc2)cc1
viability at 10 µM [1]: 107%
viability at 10 µM [2]: 107%
viability at 10 µM [3]: 103%

Structure (SMILES): O=C1C=C(c2ccccc2)/C(=C/c2ccc3[nH]ccc3c2)O1
viability at 10 µM [1]: 60.2%
viability at 10 µM [2]: 98.9%
viability at 10 µM [3]: 103%

Structure (SMILES): COc1ccc(C2=CC(=O)O/C2=C\c2ccc3ccccc3c2)cc1
viability at 10 µM [1]: 83.8%
viability at 10 µM [2]: 98.3%
viability at 10 µM [3]: 106%

Structure (SMILES): COc1ccc(/C=C2\OC(=O)C=C2c2ccc(OC)cc2)cc1
viability at 10 µM [1]: 25.9%
inhibition at 10 µM [5]: > 50%
inhibition at 10 µM [6]: > 50%
IC50 [7]: 4.3 µM
viability at 10 µM [2]: 26.5%
inhibition at 10 µM [8]: > 50%
inhibition at 10 µM [9]: > 50%
IC50 [10]: 11.9 µM
IC50 at 72 h [11]: 3.9 µM
IC50 [12]: 5.2 µM
viability at 10 µM [3]: 39.1%
IC50 [13]: 6.2 µM
inhibition at 10 µM [14]: > 50%
inhibition at 10 µM [15]: > 50%
IC50 [16]: 3.7 µM
IC50 [17]: 2.2 µM

IC50 [18]: 8 µM
IC50 [19]: 8 µM
IC50 [20]: 8 µM
Structure (SMILES): O=C1O/C(=C\c2cc(Br)c(O)c(Br)c2)C(c2cc(Br)c(O)c(Br)c2)=C1Cl

Structure (SMILES): COc1ccc(C2=CC(=O)O/C2=C\c2ccc(O)c(O)c2)cc1
viability at 10 µM [1]: 26.1%
inhibition at 10 µM [5]: > 50%
inhibition at 10 µM [6]: > 50%
IC50 [7]: 2.5 µM
viability at 10 µM [2]: 31.7%
inhibition at 10 µM [8]: > 50%
inhibition at 10 µM [9]: > 50%
IC50 [10]: 23.8 µM
IC50 at 72 h [11]: 11.3 µM
IC50 [12]: 2.8 µM
viability at 10 µM [3]: 51.9%
IC50 [13]: 8.8 µM
inhibition at 10 µM [14]: > 50%
inhibition at 10 µM [15]: > 50%
IC50 [16]: 3.4 µM
IC50 [17]: 1.3 µM

Structure (SMILES): COc1ccc(/C=C2\OC(=O)C=C2c2ccccc2)cc1
viability at 10 µM [1]: 82.9%
viability at 10 µM [2]: 113%
viability at 10 µM [3]: 91.2%

Structure (SMILES): COc1ccc(C2=CC(=O)O/C2=C\c2ccc(C(C)(C)C)cc2)cc1
viability at 10 µM [1]: 60.2%
viability at 10 µM [2]: 98.9%
viability at 10 µM [3]: 109%

Structure (SMILES): COc1ccc(C2=CC(=O)O/C2=C\c2ccccc2)cc1
viability at 10 µM [1]: 29.7%
inhibition at 10 µM [5]: > 50%
inhibition at 10 µM [6]: > 50%
IC50 [7]: 1.2 µM
viability at 10 µM [2]: 32.5%
inhibition at 10 µM [8]: > 50%
inhibition at 10 µM [9]: > 50%
IC50 [10]: 13.7 µM
IC50 at 72 h [11]: 1.6 µM
IC50 [12]: 1 µM
viability at 10 µM [3]: 52%
IC50 [13]: 5 µM
inhibition at 10 µM [14]: > 50%
inhibition at 10 µM [15]: > 50%
IC50 [16]: 1.9 µM
IC50 [17]: 1.8 µM

Structure (SMILES): Cc1ccc(/C=C2\OC(=O)C=C2c2ccccc2)cc1
viability at 10 µM [1]: 87.4%
viability at 10 µM [2]: 104%
viability at 10 µM [3]: 101%

Structure (SMILES): COc1cccc2c1C(=O)c1c(O)c3c(c(O)c1C2=O)C[C@@](O)(C(=O)CO)C[C@@H]3O[C@H]1C[C@H](N)[C@H](O)[C@H](C)O1 [DOXORUBICIN]
viability at 10 µM [1]: 5.8%
viability at 10 µM [2]: 12.2%
IC50 [10]: 0.3 µM
IC50 at 72 h [11]: 7.2 µM
IC50 [12]: 0.2 µM
viability at 10 µM [3]: 20.3%
IC50 [13]: 0.3 µM
IC50 [16]: 0.2 µM
IC50 [17]: 0.2 µM

Structure (SMILES): COc1ccc(C2=CC(=O)O/C2=C\c2ccc3[nH]ccc3c2)cc1
viability at 10 µM [1]: 25.8%
inhibition at 10 µM [5]: > 50%
inhibition at 10 µM [6]: > 50%
IC50 [7]: 1.3 µM
viability at 10 µM [2]: 23.9%
inhibition at 10 µM [8]: > 50%
inhibition at 10 µM [9]: > 50%
IC50 [10]: 7.8 µM
IC50 at 72 h [11]: 1.3 µM
IC50 [12]: 0.2 µM
viability at 10 µM [3]: 39.5%
IC50 [13]: 0.9 µM
inhibition at 10 µM [14]: > 50%
inhibition at 10 µM [15]: > 50%
IC50 [16]: 0.3 µM
IC50 [17]: 0.2 µM

Structure (SMILES): COc1ccc(C2=CC(=O)O/C2=C\c2ccc(C(=O)O)c(O)c2)cc1
viability at 10 µM [1]: 40.7%
viability at 10 µM [2]: 62.8%
viability at 10 µM [3]: 106%

Structure (SMILES): COc1ccc(C2=CC(=O)O/C2=C\c2ccc(C)cc2)cc1
viability at 10 µM [1]: 101%
viability at 10 µM [2]: 87.3%
viability at 10 µM [3]: 94.1%

IC50 [20]: 2.6 µM
Structure (SMILES): O=C1O/C(=C\c2ccc(O)c(Br)c2)C(c2ccc(O)c(Br)c2)=C1Cl

Structure (SMILES): COc1ccc(C2=CC(=O)O/C2=C\c2ccc(NC(C)=O)cc2)cc1
viability at 10 µM [1]: 30.4%
inhibition at 10 µM [5]: > 50%
inhibition at 10 µM [6]: > 50%
IC50 [7]: 6.1 µM
viability at 10 µM [2]: 32.5%
inhibition at 10 µM [8]: > 50%
inhibition at 10 µM [9]: > 50%
IC50 [10]: 2.5 µM
IC50 at 72 h [11]: 5.5 µM
IC50 [12]: 1 µM
viability at 10 µM [3]: 39.2%
IC50 [13]: 3 µM
inhibition at 10 µM [14]: > 50%
inhibition at 10 µM [15]: > 50%
IC50 [16]: 2.2 µM
IC50 [17]: 0.7 µM

Structure (SMILES): CC(=O)Nc1ccc(/C=C2\OC(=O)C=C2c2ccccc2)cc1
viability at 10 µM [1]: 92.2%
viability at 10 µM [2]: 87.2%
viability at 10 µM [3]: 90.3%

IC50 [18]: 3.1 µM
IC50 [19]: 3.1 µM
IC50 [20]: 3.1 µM
Structure (SMILES): O=C1O/C(=C\c2ccc(O)c(Br)c2)C(c2ccc(O)cc2)=C1Cl

Structure (SMILES): COc1ccc(C2=CC(=O)O/C2=C\c2ccc(O)c(OC)c2)cc1
viability at 10 µM [1]: 25.2%
inhibition at 10 µM [5]: > 50%
inhibition at 10 µM [6]: > 50%
IC50 [7]: 0.1 µM
viability at 10 µM [2]: 24.1%
inhibition at 10 µM [8]: > 50%
inhibition at 10 µM [9]: > 50%
IC50 [10]: 4.5 µM
IC50 at 72 h [11]: 1.9 µM
IC50 [12]: 0.3 µM
viability at 10 µM [3]: 37.8%
IC50 [13]: 5.4 µM
inhibition at 10 µM [14]: > 50%
inhibition at 10 µM [15]: > 50%
IC50 [16]: 0.4 µM
IC50 [17]: 0.6 µM

IC50 [4]: 10.1 µM
Structure (SMILES): CC1(C)CCc2cc(/C=C3\OC(=O)C=C3c3ccc(O)cc3)ccc2O1

Structure (SMILES): O=C1C=C(c2ccccc2)/C(=C/c2ccc(O)cc2)O1
viability at 10 µM [1]: 87.1%
viability at 10 µM [2]: 87.7%
viability at 10 µM [3]: 92.4%

Structure (SMILES): COc1ccc(C2=CC(=O)O/C2=C\c2ccc(C(C)C)cc2)cc1
viability at 10 µM [1]: 102%
viability at 10 µM [2]: 85.9%
viability at 10 µM [3]: 97.4%

Structure (SMILES): COc1cc(/C=C2\OC(=O)C=C2c2ccccc2)ccc1O
viability at 10 µM [1]: 102%
viability at 10 µM [2]: 137%
viability at 10 µM [3]: 99.8%
